According to patent publication US11485731B2, “Compounds and methods useful in the treatment of a PRMT5-mediated disorder” (ARGONAUT THERAPEUTICS LIMITED, priority 2017, dated 2022):

molecular target: human PRMT5/MEP50 (Homo sapiens (Human), UniProt O14744); assay: PRMT5 chemiluminescent assay; type: biochemical; details: human PRMT5/MEP50 expressed in HEK293 cells; biotinylated histone peptides; Histone H4 monomethyl R3 antibody; chemiluminescent readout
Method: A PRMT5 chemiluminescent assay was used to measure the IC50 activity of PRMT5 of the compounds of Examples 1A to 7 above. Biotinylated histone peptides were synthesized and attached to 384-well plates. Compound serial dilutions were performed and added to the assay plate. Histone H4 monomethyl R3 antibody was obtained from Abcam. A master mix for each well was prepared and human PRMT5/MEP50 (expressed in HEK293 cells) diluted in assay buffer to a concentration of 5 ng/μL. The reaction was incubated and slowly rotated for 60 minutes at the point of PRMT5/MEP50 addition. The supernatant from the wells was removed and blocking buffer was added to each well and rotated for 10 minutes. The primary antibody was diluted and added to every well for 60 minutes, before it was removed and the wells washed. The horse raddish peroxidase (HRP)-coupled secondary antibody was diluted and added to each well with an incubation time of 30 minutes. The HRP chemiluminescent substrate was added to every well. The plate was read on a Flourstar Omega BMG Labtech instrument (Ortenberg, Germany) and the analysis of IC50 was performed using the Flourstar Omega BMG Labtech software.

Sequence of human PRMT5/MEP50 (O14744 whole entry): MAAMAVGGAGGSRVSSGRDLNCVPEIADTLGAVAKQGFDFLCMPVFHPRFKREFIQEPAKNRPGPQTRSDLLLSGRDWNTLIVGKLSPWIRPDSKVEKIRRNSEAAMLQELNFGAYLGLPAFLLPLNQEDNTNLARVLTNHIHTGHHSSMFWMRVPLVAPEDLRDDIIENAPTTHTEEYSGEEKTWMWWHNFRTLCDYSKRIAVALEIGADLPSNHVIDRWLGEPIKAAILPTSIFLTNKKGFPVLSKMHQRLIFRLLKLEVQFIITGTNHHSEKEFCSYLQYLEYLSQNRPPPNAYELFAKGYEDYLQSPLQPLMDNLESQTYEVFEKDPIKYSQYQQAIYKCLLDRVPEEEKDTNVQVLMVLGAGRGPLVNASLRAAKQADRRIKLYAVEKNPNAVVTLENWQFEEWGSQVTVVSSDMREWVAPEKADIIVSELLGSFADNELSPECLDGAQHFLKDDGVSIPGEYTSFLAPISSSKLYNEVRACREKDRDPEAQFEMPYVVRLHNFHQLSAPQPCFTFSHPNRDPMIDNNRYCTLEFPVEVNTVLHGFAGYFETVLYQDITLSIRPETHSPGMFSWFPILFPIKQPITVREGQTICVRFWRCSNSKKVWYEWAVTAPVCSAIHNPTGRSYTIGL
Sequence of human PRMT5/MEP50 (Q9BQA1 whole entry partner): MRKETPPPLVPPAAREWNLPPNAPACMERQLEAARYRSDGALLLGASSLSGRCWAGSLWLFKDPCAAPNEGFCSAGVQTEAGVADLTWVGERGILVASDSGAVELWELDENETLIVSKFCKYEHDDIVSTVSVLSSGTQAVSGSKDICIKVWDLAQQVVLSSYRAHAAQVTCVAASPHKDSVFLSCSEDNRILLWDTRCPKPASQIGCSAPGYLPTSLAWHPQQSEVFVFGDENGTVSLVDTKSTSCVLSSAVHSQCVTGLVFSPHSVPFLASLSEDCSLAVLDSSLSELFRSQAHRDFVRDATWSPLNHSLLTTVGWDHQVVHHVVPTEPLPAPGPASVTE

Compound | IC50
O=C(NCC(O)CN1CCc2sccc2C1)N1CCC(c2ccccc2)C1 (stereo not shown) [Example 1AE, N-(3-(6,7-dihydrothieno[3,2-c]pyridin-5(4H)-yl)-2-hydroxypropyl)-3-phenylpyrrolidine-1-carboxamide] | 72 nM
O=C(NC[C@H](O)CN1CCc2ccccc2C1)N1CCC(O)(c2ccccc2)C1 (stereo partly drawn) [Example 1BI, N-((S)-3-(3,4-dihydroisoquinolin-2(1H)-yl)-2-hydroxypropyl)-3-hydroxy-3-phenylpyrrolidine-1-carboxamide] | 399 nM
O=C(NCC(O)CN1CCc2ccccc2C1)N1CCCC(Nc2ccncc2)C1 (stereo not shown) [Example 1P, N-(3-(3,4-dihydroisoquinolin-2(1H)-yl)-2-hydroxypropyl)-3-(pyridin-4-ylamino)piperidine-1-carboxamide] | 221 nM
O=C(OCC(O)CN1CCc2sccc2C1)N1CCc2ccccc2C1 (stereo not shown) [Example 4AA, 3-(6,7-dihydrothieno[3,2-c]pyridin-5(4H)-yl)-2-hydroxypropyl 3,4-dihydroisoquinoline-2(1H)-carboxylate] | 46 nM
O=C(NCC(O)CN1CCc2ccccc2C1)N1CC(C(=O)N2C3CCC2COC3)C1 (stereo not shown) [Example 1X, 3-(3-oxa-8-azabicyclo[3.2.1]octane-8-carbonyl)-N-(3-(3,4-dihydroisoquinolin-2(1H)-yl)-2-hydroxypropyl)azetidine-1-carboxamide] | 376 nM
CN(C)C(=O)C1CN(C(=O)OCC(O)CN2CCc3ccccc3C2)C1 (stereo not shown) [Example 4S, 3-(3,4-dihydroisoquinolin-2(1H)-yl)-2-hydroxypropyl 3-(dimethylcarbamoyl)azetidine-1-carboxylate] | 5030 nM
O=C(NCC(O)CN1CCc2ccsc2C1)N1CCCC(c2ccccc2)C1 (stereo not shown) [Example 1AD, N-(3-(4,7-dihydrothieno[2,3-c]pyridin-6(5H)-yl)-2-hydroxypropyl)-3-phenylpiperidine-1-carboxamide] | 652 nM
O=C(NCC(O)CN1CCc2ccccc2C1)N1CCc2ccccc2C1 (stereo not shown) [Example 1I, N-[2-hydroxy-3-(1,2,3,4-tetrahydroisoquinolin-2-yl)propyl]-1,2,3,4-tetrahydroisoquinoline-2-carboxamide] | 208 nM
O=C(NCC(O)CN1CCc2ccccc2C1)N1CCN(Cc2ccccc2)CC1 (stereo not shown) [Example 1D, 4-benzyl-N-[2-hydroxy-3-(1,2,3,4-tetrahydroisoquinolin-2-yl)propyl]piperazine-1-carboxamide] | 1870 nM
O=C(OC[C@H](O)CN1CCc2ccccc2C1)N1CC[C@H](c2ccccc2)C1 [Example 4L, (R)-3-(3,4-dihydroisoquinolin-2(1H)-yl)-2-hydroxypropyl (R)-3-phenylpyrrolidine-1-carboxylate] | 13 nM
O=C(OC[C@@H](O)CN1CCc2ccccc2C1)N1CCc2ccccc2C1 [Example 4H, (S)-3-(3,4-dihydroisoquinolin-2(1H)-yl)-2-hydroxypropyl 3,4-dihydroisoquinoline-2(1H)-carboxylate] | 539 nM
O=C(NC[C@@H](O)CN1CCc2ccccc2C1)N1CCCc2ccccc21 [Example 1AK, (R)-N-(3-(3,4-dihydroisoquinolin-2(1H)-yl)-2-hydroxypropyl)-3,4-dihydroquinoline-1(2H)-carboxamide] | 5980 nM
O=C(OCCCN1CCc2ccccc2C1)N1CCC(c2ccccc2)C1 (stereo not shown) [Example 7, 3-(3,4-dihydroisoquinolin-2(1H)-yl)propyl 3-phenylpyrrolidine-1-carboxylate] | 342 nM
O=C(OCC(O)CN1CCc2ccccc2C1)N1CCCC(Nc2ccncc2)C1 (stereo not shown) [Example 4C, 3-(3,4-dihydroisoquinolin-2(1H)-yl)-2-hydroxypropyl 3-(pyridin-4-ylamino)piperidine-1-carboxylate] | 25 nM
O=C(NC[C@H](O)CN1CCc2ccccc2C1)N1CCC(N2CCCSCC2)C1 (stereo partly drawn) [Example 1CF, N-((S)-3-(3,4-dihydroisoquinolin-2(1H)-yl)-2-hydroxypropyl)-3-(1,4-thiazepan-4-yl)pyrrolidine-1-carboxamide] | 376 nM
O=C(NC[C@H](O)CN1CCc2ccccc2C1)N1CCC[C@H](C2CCOCC2)C1 (single isomer, unassigned) [Example 5H, (R)-N-((S)-3-(3,4-dihydroisoquinolin-2(1H)-yl)-2-hydroxypropyl)-3-(tetrahydro-2H-pyran-4-yl)piperidine-1-carboxamide compound or (S)-N-((S)-3-(3,4-dihydroisoquinolin-2(1H)-yl)-2-hydroxypropyl)-3-(tetrahydro-2H-pyran-4-yl)piperidine-1-carboxamide] | 511 nM
O=C(NC[C@H](O)CN1CCc2ccccc2C1)N1CCS(=O)(=O)C(c2ccccc2)C1 (stereo partly drawn) [Example 1CG, N-((S)-3-(3,4-dihydroisoquinolin-2(1H)-yl)-2-hydroxypropyl)-2-phenylthiomorpholine-4-carboxamide 1,1-dioxide] | 422 nM

Compound | IC50
O=C(NC[C@H](O)CN1CCc2ccccc2C1)N1CCSC(c2ccccc2)C1 (stereo partly drawn) [Example 1BJ, N-((S)-3-(3,4-dihydroisoquinolin-2(1H)-yl)-2-hydroxypropyl)-2-phenylthiomorpholine-4-carboxamide] | 108 nM
O=C(NC[C@@H](O)CN1CCc2ccccc2C1)N1CCC(C(=O)N2C3CCC2COC3)CC1 [Example 1BE, 4-(3-oxa-8-azabicyclo[3.2.1]octane-8-carbonyl)-N-((R)-3-(3,4-dihydroisoquinolin-2(1H)-yl)-2-hydroxypropyl)piperidine-1-carboxamide] | 3080 nM
O=C(NCC(O)CN1CCc2ccccc2C1)N1CC(C(=O)N2CCOCC2)C1 (stereo not shown) [Example 1W, N-(3-(3,4-dihydroisoquinolin-2(1H)-yl)-2-hydroxypropyl)-3-(morpholine-4-carbonyl)azetidine-1-carboxamide] | 7390 nM
CS(=O)(=O)N1CCCN(C(=O)NC[C@@H](O)CN2CCc3ccccc3C2)CC1 [Example 1BD, (R)-N-(3-(3,4-dihydroisoquinolin-2(1H)-yl)-2-hydroxypropyl)-4-(methylsulfonyl)-1,4-diazepane-1-carboxamide] | 58200 nM
O=C(NCC(O)CN1CCc2sccc2C1)N1CCc2ccccc2C1 (stereo not shown) [Example 1AA, N-(3-(6,7-dihydrothieno[3,2-c]pyridin-5(4H)-yl)-2-hydroxypropyl)-3,4-dihydroisoquinoline-2(1H)-carboxamide] | 342 nM
CN1CCCN(C(=O)NCC(O)CN2CCc3ccccc3C2)CC1 (stereo not shown) [Example 1CL, N-(3-(3,4-dihydroisoquinolin-2(1H)-yl)-2-hydroxypropyl)-4-methyl-1,4-diazepane-1-carboxamide] | 436 nM
O=C(NC[C@H](O)CN1CCc2ccccc2C1)N1CCCC(c2cccnc2)C1 (stereo partly drawn) [Example 1BV, N-((S)-3-(3,4-dihydroisoquinolin-2(1H)-yl)-2-hydroxypropyl)-3-(pyridin-3-yl)piperidine-1-carboxamide] | 57 nM
O=C(OCC(O)CN1CCc2ccccc2C1)N1CCC(C(=O)N2CCOCC2)CC1 (stereo not shown) [Example 4B, 3-(3,4-dihydroisoquinolin-2(1H)-yl)-2-hydroxypropyl 4-(morpholine-4-carbonyl)piperidine-1-carboxylate] | 75 nM
CN(C)C(=O)C1CCN(C(=O)OC[C@H](O)CN2CCc3ccccc3C2)CC1 [Example 4O, (R)-3-(3,4-dihydroisoquinolin-2(1H)-yl)-2-hydroxypropyl 4-(dimethylcarbamoyl)piperidine-1-carboxylate] | 2710 nM
O=C(NCC(O)CN1CCc2ccccc2C1)N1CCCCc2ccccc21 (stereo not shown) [Example 1J, N-[2-hydroxy-3-(1,2,3,4-tetrahydroisoquinolin-2-yl)propyl]-2,3,4,5-tetrahydro-1H-1-benzazepine-1-carboxamide] | 320 nM
O=C(NCC(O)CN1CCc2ccccc2C1)N1CCCN(c2ccccc2)CC1 (stereo not shown) [Example 1S, N-(3-(3,4-dihydroisoquinolin-2(1H)-yl)-2-hydroxypropyl)-4-phenyl-1,4-diazepane-1-carboxamide] | 95 nM
O=C(OCC(O)CN1CCc2ccsc2C1)N1CCC(c2ccccc2)C1 (stereo not shown) [Example 4AF, 3-(4,7-dihydrothieno[2,3-c]pyridin-6(5H)-yl)-2-hydroxypropyl 3-phenylpyrrolidine-1-carboxylate] | 21 nM
O=C(OCC(O)CN1CCc2sccc2C1)N1CCCC(c2ccccc2)C1 (stereo not shown) [Example 4AC, 3-(6,7-dihydrothieno[3,2-c]pyridin-5(4H)-yl)-2-hydroxypropyl 3-phenylpiperidine-1-carboxylate] | 374 nM
O=C(NC[C@H](O)CN1CCc2ccccc2C1)N1CCCS(=O)(=O)CC1 [Example 1AV, (S)-N-(3-(3,4-dihydroisoquinolin-2(1H)-yl)-2-hydroxypropyl)-1,4-thiazepane-4-carboxamide 1,1-dioxide] | 3140 nM
O=C(OCC(O)CN1CCc2ccccc2C1)N1CC[S+]([O-])CC1 (stereo not shown) [Example 4M, 3-(3,4-dihydroisoquinolin-2(1H)-yl)-2-hydroxypropyl thiomorpholine-4-carboxylate 1-oxide] | 2220 nM
CN1CCCN(C(=O)OCC(O)CN2CCc3ccccc3C2)CC1 (stereo not shown) [Example 4J, 3-(3,4-dihydroisoquinolin-2(1H)-yl)-2-hydroxypropyl 4-methyl-1,4-diazepane-1-carboxylate] | 246 nM
O=C(OC[C@H](O)CN1CCc2ccccc2C1)N1CCC(c2ccccc2)C1 (stereo partly drawn) [Example 4E, (R)-3-(3,4-dihydroisoquinolin-2(1H)-yl)-2-hydroxypropyl 3-phenylpyrrolidine-1-carboxylate] | 19 nM
